From US7186829B1, “Aryl-substituted heterocyclic enaminones” (Bayer Aktiengesellschaft, priority 1999, dated 2007)

Key:
[1] = test system: larvae of the mustard beetle (Phaedon cochleariae); test: Phaedon larvae test; format: in vivo; conditions: cabbage leaves (Brassica oleracea) dipped into preparation of active compound; result in words
Procedure: (§1) Phaedon larvae test • Solvent: 31 parts by weight of dimethylformamide • Emulsifier: I part by weight of alkylaryl polyglycol ether To produce a suitable preparation of active compound, 1 part by weight of active compound is mixed with the stated amounts of solvent and emulsifier, and the concentrate is diluted with emulsifier-containing water to the desired concentration. Cabbage leaves (Brassica oleracea) are treated by being dipped into the preparation of active compound of the desired concentration and populated with larvae of the mustard beetle (Phaedon cochleariae) while the leaves are still moist. After the desired period of time, the kill in % is determined. 100% means that all beetle larvae have been killed; 0% means that none of the beetle larvae have been killed.

[2] = test system: common spider mite (Tetranychus urticae); test: Tetranychus test (OP resistent/dip treatment); format: in vivo; conditions: bean plants (Phaseolus vulgaris) infested by all stages, dip treatment, OP resistent; result in words
Procedure: Tetranychus test (OP resistent/dip treatment) • Solvent: 30 parts by weight of dimethylformamide • Emulsifier: 1 part by weight of alkylaryl polyglycol ether To produce a suitable preparation of active compound, 1 part by weight of active compound is mixed with the stated amounts of solvent and emulsifier, and the concentrate is diluted with emulsifier-containing water to the desired concentration. Bean plants (Phaseolus vulgaris) which are heavily infested by all stages of the common spider mite (Tetranychus urticae) are dipped into a preparation of active compound of the desired concentration. After the desired period of time, the kill in % is determined. 100% means that all spider mites have been killed; 0% means that none of the spider mites have been killed.

[3] = test system: larva (L3) of the army worm (Spodoptera frugiperda); test: Spodoptera frugiperda test; format: in vivo; conditions: preparation pipetted onto synthetic feed, result in words
Procedure: Spodoptera frugiperda test • Solvent: 31 parts by weight of dimethylformamide • Emulsifier: 1 part by weight of alkylaryl polyglycol ether To produce a suitable preparation of active compound, 1 part by weight of active compound is mixed with the stated amount of solvent and the stated amount of emulsifier, and the concentrate is diluted with emulsifier-containing water to the desired concentration. A stated amount of the preparation of active compound of the desired concentration is pipetted onto a standardized amount of synthetic feed. In 6 repetitions, in each case one larva (L3) of the army worm (Spodoptera frugiperda) is placed on the feed. After the desired period of time, the kill in % is determined. 100% means that all animals have been killed; 0% means that none of the animals have been killed.

[4] = test system: Heliothis virescens caterpillars; test: Heliothis virescens test; format: in vivo; conditions: soya bean shoots (Glycine max) dipped; result in words
Procedure: as §1, with “Heliothis virescens” for “Phaedon larvae”, “30” for “31”, “1” for “I”, “Soya bean shoots (Glycine max)” for “Cabbage leaves (Brassica oleracea)”, “Heliothis virescens caterpillars” for “larvae of the mustard beetle (Phaedon cochleariae)”, “caterpillars” for “beetle larvae”

melting point | Structure (SMILES) | also measured
136 °C | CCC1COC(C)/C(=C(\C#N)C(=O)c2ccc(Cl)cc2)N1 (centres unmarked) [I-1-a-1, 3-(4-chlorophenyl)-2-(5-ethyl-2-methyl-1,4-oxazinon-3-ylidene)-3-oxopropionitrile] | 
192 °C | N#CC(C(=O)c1ccc(Cl)cc1)=C1COCCN1 [I-1-a-5, 3-(4-chlorophenyl)-2-(1,4-oxazinan-3-ylidene)-3-oxo-propionitrile] | 
195 °C | CC1OCCN/C1=C(/C#N)C(=S)c1cc(C(F)(F)F)cc(C(F)(F)F)c1 (centres unmarked) [I-1-a-2, 3-[3,5-bis(trifluoromethyl)phenyl]-2-(2-methyl-1,4-oxazinan-3-ylidene)-3-thioxopropionitrile] | 
182 °C | N#CC(C(=O)c1cc(C(F)(F)F)cc(C(F)(F)F)c1)=C1CSCCN1 [I-1-a-10, 3-[3,5-bis(trifluoromethyl)phenyl]-2-(1,4-thiazinan-3-ylidene)-3-oxo-propionitrile] | activity (kill in %) against Phaedon cochleariae larvae [1]: good activity; activity (kill in %) against Tetranychus urticae [2]: good activity
142 °C | CC1OCCNC1=C(C#N)C(=O)c1cc(C(F)(F)F)cc(C(F)(F)F)c1 (centres unmarked) [I-1-a-14, 3-[3,5-bis(trifluoromethyl)phenyl]-2-(2-methyl-1,4-oxazinan-3-ylidene)-3-oxopropionitrile] | activity (kill in %) against Spodoptera frugiperda larvae [3]: good activity; activity (kill in %) against Heliothis virescens caterpillars [4]: good activity
224 to 226 °C | N#C/C(C(=O)c1cc(C(F)(F)F)cc(C(F)(F)F)c1)=C1\CS(=O)(=O)CCN1 [I-1-a-15, 3-[3,5-bis(trifluoromethyl)phenyl]-2-(1,1-dioxo-Iλ^6,4-thiazinan-3-ylidene)-3-oxo-propionitrile] | 
119 °C | CC1OCCN/C1=C(/C#N)C(=O)c1cc(-c2ccc(Cl)cc2)cc(C(F)(F)F)c1 (centres unmarked) [I-1-a-37, 3-[3-(4-chlorophenyl)-5-trifluoromethylphenyl]-2-(2-methyl-1,4-oxazinon-3-ylidene)-3-oxopropionitrile] | 
